According to patent US5459236A, “Vasoactive vasotocin derivatives” (Ferring AB, priority 1990, dated 1995):

Key:
[1] = tested on: anaesthetised Sprague Dawley rats, previously treated with dibenamine; assay: Blood pressure (pressor) test, 4-point test against standard AVP; assay type: in vivo
Text: (§1) Vasotocin derivatives according to the invention have been tested for potency of both blood pressure and antidiuretic activity in a so-called 4-point test, i.e. the activity of the test substances has been related to a standard preparation (AVP=argininevasopressin), and the effects of two dose levels for each substance have been analysed. In addition, three pressor-specific VT derivatives according to our previous application SE 8703855-0 have been tested for a comparison, namely 1-Hmp-2-Phe-S-Orn-VT (compound 2 in Table 1), 1-Hmp-2-Phe-S-Dab-VT (compound 3 in Table 1), and 1-Hmp-2-Phe-S-Dab(Ala)-VT (compound 5 in Table 1).
Blood pressure tests were carried out on anaesthetised Sprague Dawley rats (about 250 g), previously treated with dibenamine (Dekanski, J., 1952. Br. J. Pharmacol. 7, 567). Maximal blood pressure increase after intravenous injections of peptide was used as a measure of the effect, expressed as intensity.
In addition to potency determination based-on effect intensity, a measure of the length of the effect has been stated (index of persistence (I.P.), Pliska, V., 1966. Arzheim. Forech. 16, 886). This dimensionless factor is a measure of the effect duration of the respective analog in relation to the standard AVP.
(§2) In these two tests, a comparison was made between the effects of the respective derivative and the effect of a standard preparation, AVP, and potency was determined with the aid of a 4-point test and is indicated in international units per micromole (IU/μmole) (Sturmer, E., in Handbook of Expermimental Pharmacology, 1966, Vol 23, pp 130-189).
The specificity in respect of blood pressure is indicated by the ratio of potency blood pressure/potency antidiuresis (BP/AD).

[2] = tested on: anaesthetised water-loaded Sprague Dawley rats; assay: Antidiuretic potency test, 4-point test against standard AVP; assay type: in vivo; settings: maximal increase of urine conductivity after intravenous injection, 4-point test vs AVP
Text: as §1
Antidiuretic potency was determined with the aid of anaesthetised water-loaded Sprague Dawley rats (200 g) (Larsson, L. E., Lindeberg, G., Melin, P. and Pliska, V., 1978, J. Mad. Chem. 21, 353). Maximal increase of urine conductivity after intravenous injections was used as effect parameter.
as §2

SMILES: NC(=O)CC[C@@H]1NC(=O)[C@H](Cc2ccccc2)NC(=O)[C@H](Cc2ccc(O)cc2)NC(=O)[C@@H](N)CSSC[C@@H](C(=O)N2CCC[C@H]2C(=O)N[C@@H](CCCN=C(N)N)C(=O)NCC(N)=O)NC(=O)[C@H](CC(N)=O)NC1=O [AVP, argininevasopressin]
- BLOOD PRESSURE BP I.P (measure of duration of effect), index of persistence ([1]; dimensionless, effect duration in relation to the standard AVP, intravenous): 1.0
- BLOOD PRESSURE BP potency ([1]; maximal blood pressure increase after intravenous injection, 4-point test vs AVP, anaesthetised rats): 614 ± 25 IU/μmole
- BP/AD (measure of specificity) ([1]; ratio of potency blood pressure/potency antidiuresis): 1.0
- ANTIDIURESIS AD potency [2]: 620 ± 54 IU/μmole
